Test results from patent publication US20070155752A1, “2-Amino-o4-substituted pteridines and their use as inactivators of o6-alkylguanine-dna alkyltransferase” (Government of the United States of America,, priority 2004, published 2007).
Where two headings read alike, the source gives them in different places. Marks after values point to notes of the source that are not given here.

Legend:
[1] = system: KB nasopharyngeal tumor cells; assay: Colony-forming cytotoxicity assay with BCNU, KB cells; type: cell-based; details: 40 μM or 80 μM BCNU, 2 hr exposure in folate free medium
Protocol: (§1) 2-Amino-O^4-benzyl-6-carboxypteridine (5) is not effective probably because the negative charge on the molecule at physiological pH prevents its easy entry into cells. However, even though O^4-benzylfolic acid is also anionic at physiological pH, it does enhance cell killing by BCNU. Furthermore, its effectiveness as an adjuvant is a function of the cells' ability to express the α-form of the folic acid receptor. […] KB cell killing by 80 μM BCNU in combination with 7 is also illustrated. For these experiments (FIG. 2) cells were grown in RPMI medium, were incubated with 7 for 2 hr and were then treated with either 40 μM BCNU (A549, HT29 and KB cells) or 80 μM BCNU (KB cells) for 2 hr. The medium was then replaced with fresh medium containing no 7. Cells were kept for 16-18 hr before being replated. […]
(§2) Cells were grown either in Dulbecco's modified Eagle's medium supplemented with 10% fetal bovine serum plus 1.5 mM glutamine and 50 μg/mL gentamycin (HT29) or in RPMI 1640 medium in the presence of 10% fetal bovine serum (HT29, A549 and KB cells). The effect of AGT inactivators on the sensitivity of cells to BCNU was determined using a colony-forming assay.^13 Cells were plated at a density of 10^6 in 25-cm^2 flasks and 24 h later were incubated with different concentrations of AGT inactivator for 2 h before exposure to 40 μM (HT29 cells and A549 cells) or 80 μM (KB cells) of BCNU for 2 h. […]

[2] = system: A549 lung tumor cells; assay: Colony-forming cytotoxicity assay with BCNU, A549 cells; type: cell-based; details: 40 μM BCNU, 2 hr exposure in folate free medium
Protocol: as §1, §2

[3] = system: HT29 cells; details: for Enhancement of HT29 cell killing by BCNU / ED90, concentration required to kill 90% of HT29 cells with BCNU: BCNU 40 μM
[4] = biological target: T1, P140K mutant alkyltransferase (Homo sapiens, UniProt P16455, P140K); details: cited from earlier work
T1 construct: His tag
T1 sequence (P16455 1-207 P140K): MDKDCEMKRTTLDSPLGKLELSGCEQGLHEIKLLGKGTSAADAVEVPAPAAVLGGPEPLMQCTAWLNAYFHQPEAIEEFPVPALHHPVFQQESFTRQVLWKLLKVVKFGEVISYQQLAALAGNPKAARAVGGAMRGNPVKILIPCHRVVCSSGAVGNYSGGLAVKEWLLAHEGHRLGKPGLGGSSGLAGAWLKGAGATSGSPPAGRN

[5] = RPMI medium, inactivator present before and during BCNU only
[6] = Dulbecco's medium, inactivator present before, during and after BCNU for 16-18 hours

Row | SMILES | Enhancement of HT29 cell killing by BCNU [3] | ED90, concentration required to kill 90% of HT29 cells with BCNU [3, 5] | ED90, concentration required to kill 90% of HT29 cells with BCNU [3, 6] | further results
1 | Nc1nc(OCc2ccccc2)c2nc(CNc3ccc(C(=O)N[C@@H](CCC(=O)O)C(=O)O)cc3)cnc2n1 [Compound 7, O^4-Benzylfolic acid] | capable of enhancing | 24^c,d μM |  | Effectiveness as an adjuvant for cell killing by BCNU (FIG. 2) [1]: greatest; Effectiveness as an adjuvant for cell killing by BCNU (FIG. 2) [2]: lowest; ED90, concentration required to kill 90% of HT29 cells with BCNU ([3]; RPMI folate-free medium): 15 µM; Effectiveness as an adjuvant for cell killing by BCNU (FIG. 2) ([3]; HT29 cells, 40 μM BCNU, 2 hr exposure in folate free medium): somewhat greater
2 | Nc1nc(OCc2ccccc2)c2nc(CO)cnc2n1 [Compound 4, 2-Amino-O^4-benzyl-6-hydroxymethylpteridine] | capable of enhancing |  | 0.7^b μM | 
3 | Nc1nc(OCc2ccccc2)c2nc[nH]c2n1 [O^6-benzylguanine, reference compound] |  | 0.7^c μM | 0.4^b μM | Inactivation of the P140K mutant alkyltransferase [4]: essentially resistant
4 | Nc1nc(OCc2ccccc2)c2nc(C(=O)O)cnc2n1 [Compound 5, 2-Amino-O^4-benzylpteridine-6-carboxylic acid] | not effective |  | inactive | 
5 | Nc1nc(OCc2ccccc2)c2nccnc2n1 [Compound 1, 2-amino-O^4-benzylpteridine] | capable of enhancing |  | 0.2^b μM | 
6 | Nc1nc(OCc2ccccc2)c2nc(C=O)cnc2n1 [Compound 6, 2-Amino-O^4-benzyl-6-formylpteridine] | capable of enhancing | 0.7^c μM |  | 
7 | Cc1nc2nc(N)nc(OCc3ccccc3)c2nc1C [Compound 2, 2-amino-O^4-benzyl-6,7-dimethylpteridine] | capable of enhancing |  | 0.6^b μM | 
